The values that follow come from patent publication US11045457B2, “Piperidinyl-3-(aryloxy)propanamides and propanoates” (priority 2018, dated 2021).

Assay [1] addresses T1, SSTR4 (Homo sapiens (Human), UniProt P31391). The experiment in a line: Inhibition of forskolin stimulated cAMP in CHO-K1 cells overexpressing SSTR4. Type of assay: cell-based. As to conditions: for EC50: read-out: SSTR4 Activity pEC50 (converted). A digest of the protocol:
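Read-out is a HTRF LANCE Ultra cAMP competition using Eu-labelled streptavidin and biotin-cAMP, incubated 60 min at room temperature. It followed a 30 min room-temperature exposure of Kreb's Ringer-washed cells to compound plus forskolin. Potency is expressed as pEC50.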

Assay [2] addresses T1, SSTR4. Briefly: SSTR4 I-125 somatostatin competition binding assay (membranes from CHO-K1 cells overexpressing SSTR4). As to conditions: competition with I-125 labeled somatostatin; for IC50: read-out: SSTR4 Binding pIC50 (converted).
The next assay addresses SSTR1 (Homo sapiens (Human), UniProt P30872). The experiment in a line: SSTR1 I-125 somatostatin competition binding assay for selectivity versus SSTR4 (membranes from CHO-K1 cells overexpressing SSTR1).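 As to all read-outs here: Filter-based radioligand binding, bound label counted by scintillation after 60 min incubation at room temperature.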 As to conditions: for SSTR1 Binding pIC50: competition with I-125 labeled somatostatin, CHO-K1 SSTR1 membranes.

T1 sequence (P31391 whole entry): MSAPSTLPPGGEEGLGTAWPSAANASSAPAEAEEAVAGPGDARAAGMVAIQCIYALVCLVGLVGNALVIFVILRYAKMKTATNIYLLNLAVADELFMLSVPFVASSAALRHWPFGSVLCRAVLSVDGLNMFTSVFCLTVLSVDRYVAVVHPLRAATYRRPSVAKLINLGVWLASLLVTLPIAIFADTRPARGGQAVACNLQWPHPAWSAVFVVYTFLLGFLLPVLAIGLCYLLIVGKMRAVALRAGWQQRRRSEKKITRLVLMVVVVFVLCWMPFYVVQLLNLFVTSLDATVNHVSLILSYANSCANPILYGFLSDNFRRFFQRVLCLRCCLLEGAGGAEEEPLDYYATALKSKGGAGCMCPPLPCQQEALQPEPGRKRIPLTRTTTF
Chain of SSTR1 (P30872 whole entry): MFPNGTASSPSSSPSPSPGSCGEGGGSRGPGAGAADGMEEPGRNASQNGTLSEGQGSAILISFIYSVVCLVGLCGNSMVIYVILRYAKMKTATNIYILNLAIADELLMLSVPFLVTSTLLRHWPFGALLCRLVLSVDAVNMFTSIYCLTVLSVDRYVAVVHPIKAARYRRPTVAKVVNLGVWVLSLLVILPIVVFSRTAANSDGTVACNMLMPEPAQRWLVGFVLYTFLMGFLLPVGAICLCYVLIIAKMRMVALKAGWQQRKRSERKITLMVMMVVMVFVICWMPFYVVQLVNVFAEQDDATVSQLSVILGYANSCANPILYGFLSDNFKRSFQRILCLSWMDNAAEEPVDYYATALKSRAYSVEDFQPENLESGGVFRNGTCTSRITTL
Experimental for SSTR1: Membranes from CHO-K1 cells overexpressing SSTR1 are purchased from Perkin Elmer (catalog number ES-520-M400UA). […] Then 10 μg of SSTR1 membranes in 50 μL assay buffer are added per well. The plate is incubated for 60 minutes at room temperature. […] The contents of the assay plate are transferred to filters with a TomTech harvester and washed 5 times with 20 mM HEPES, 100 mM NaCl. […] The scintillator sheets are melted to the filters using a heat block. The filters are then read in a MicroBeta scintillation counter. Binding Ki curves are generated using Activity Base for Screening Data Management and the results are reported as pIC50.

For `C[C@@H]1C[C@H](NC(=O)C(F)(F)COc2ncccc2OC(F)(F)F)CCN1` [Example 212, 2,2-difluoro-N-((2R,4R)-2-methylpiperidin-4-yl)-3-((3-(trifluoromethoxy)pyridin-2-yl)oxy)propanamide], the “SSTR4 Activity pEC50” value on SSTR4 [1] is 8.6. In addition, the “SSTR4 Binding pIC50” value on SSTR4 [2] is 7.4. In addition, at SSTR1, the “SSTR1 Binding pIC50” value came to 4.5.

As for `C[C@H]1C[C@@H](NC(=O)C(C)(C)COc2ncccc2OC(F)(F)F)CCN1C` [Example 152, N-((2S,4S)-1,2-dimethylpiperidin-4-yl)-2,2-dimethyl-3-((3-(trifluoromethoxy)pyridin-2-yl)oxy)propanamide], the “SSTR4 Activity pEC50” value on SSTR4 [1] turned out to be 7.0. Also, the “SSTR4 Binding pIC50” value on SSTR4 [2] is listed as 6.6. Also, the “SSTR1 Binding pIC50” value on SSTR1 stood at 4.6.

`CN1C[C@@H](NC(=O)C(C)(C)COc2ncccc2C2CC2)[C@H](c2ccc(C(F)(F)F)nc2)C1` (racemic) [Example 58, trans-3-((3-cyclopropylpyridin-2-yl)oxy)-2,2-dimethyl-N-(1-methyl-4-(6-(trifluoromethyl)pyridin-3-yl)pyrrolidin-3-yl)propanamide]: the EC50 at SSTR4 [1] is 20 nM. Further, the IC50 is 200 nM at SSTR4 [2] and 126 nM at SSTR1.

On to `Cc1nn(C)cc1[C@@H]1CN(C)C[C@H]1NC(=O)C(C)(C)COc1ncccc1C(F)(F)F` (relative stereo) [Example 25, trans-N-(4-(1,3-dimethyl-1H-pyrazol-4-yl)-1-methylpyrrolidin-3-yl)-2,2-dimethyl-3-((3-(trifluoromethyl)pyridin-2-yl)oxy)propanamide], for which the “SSTR4 Activity pEC50” value at SSTR4 [1] was 8.3. In addition, at SSTR4 [2], the “SSTR4 Binding pIC50” value is recorded as 7.0. The “SSTR1 Binding pIC50” value at SSTR1 is given as 6.4.

Turning to `CN1CCC(NC(=O)C(C)(C)COc2ncccc2OC(F)(F)F)C2(CC2)C1` (stereo not drawn) [Example 119, 2,2-dimethyl-N-(5-methyl-5-azaspiro[2.5]octan-8-yl)-3-((3-(trifluoromethoxy)pyridin-2-yl)oxy)propanamide], the “SSTR4 Activity pEC50” value on SSTR4 [1] stood at 9.0. In addition, the “SSTR4 Binding pIC50” value on SSTR4 [2] stood at 7.3. The “SSTR1 Binding pIC50” value on SSTR1 amounted to 5.0.

For `C[C@@H]1CN(C)CC[C@H]1NC(=O)C(F)(F)COc1ncccc1OC(F)(F)F` (racemic) [Example 200, N-(trans-1,3-dimethylpiperidin-4-yl)-2,2-difluoro-3-((3-(trifluoromethoxy)pyridin-2-yl)oxy)propanamide], the EC50 at SSTR4 [1] was 31.6 nM. Also, the IC50 on SSTR4 [2] was 126 nM; on SSTR1 it was 39800 nM.

With `C[C@H]1CNCC[C@@H]1NC(=O)C(C)(C)COc1ccccc1Cl` [Example 190, 3-(2-chlorophenoxy)-2,2-dimethyl-N-((3S,4S)-3-methylpiperidin-4-yl)propanamide], the “SSTR4 Activity pEC50” value on SSTR4 [1] was 9.8. Besides, the “SSTR4 Binding pIC50” value on SSTR4 [2] was found to be 7.6. Further, the “SSTR1 Binding pIC50” value on SSTR1 was found to be 5.3.

Turning to `C[C@@H]1CN(C)CC[C@H]1NC(=O)C(C)(C)COc1ccccc1Cl` (relative stereo) [Example 186, trans-3-(2-chlorophenoxy)-N-(1,3-dimethylpiperidin-4-yl)-2,2-dimethylpropanamide], the “SSTR4 Activity pEC50” value at SSTR4 [1] is on record as 8.1. The “SSTR4 Binding pIC50” value on SSTR4 [2] is recorded as 7.4. Further, the “SSTR1 Binding pIC50” value at SSTR1 amounted to 5.5.

On to `C[C@H]1CNCC[C@@H]1NC(=O)C(F)(F)COc1ncccc1C(F)(F)F` [Example 208, 2,2-difluoro-N-((3S,4S)-3-methylpiperidin-4-yl)-3-((3-(trifluoromethyl)pyridin-2-yl)oxy)propanamide], for which the “SSTR4 Activity pEC50” value at SSTR4 [1] came out at 8.6. Also, the “SSTR4 Binding pIC50” value at SSTR4 [2] stood at 7.1. For the same molecule, the “SSTR1 Binding pIC50” value on SSTR1 was 4.4.

`C[C@H]1CN(C)CC[C@@H]1NC(=O)C(C)(C)COc1ccccc1F` [Example 202, N-((3S,4S)-1,3-dimethylpiperidin-4-yl)-3-(2-fluorophenoxy)-2,2-dimethylpropanamide]: the “SSTR4 Activity pEC50” value at SSTR4 [1] amounted to 7.1. In addition, the “SSTR4 Binding pIC50” value on SSTR4 [2] worked out at 7.0. The “SSTR1 Binding pIC50” value on SSTR1 came out at 5.0.
